In ChEMBL document CHEMBL6071156 (Eur J Med Chem, 2024):
Calls of active or inactive are those of the source. The rule behind the calls is not given here.

Columns and labels:
[1] = Cytotoxicity against green monkey Vero 76 cells assessed as reduction in cell viability; assay type: toxicity, cell-based; settings: chlorocebus sabaeus
[2] = C0 in C57BL/6 mouse plasma at 2.5 mg/kg, iv measured upto 24 hrs post dosing by LC-MS/MS; assay type: ADME, organism-based; settings: in vivo
[3] = Half life in C57BL/6 mouse plasma at 2.5 mg/kg, iv measured upto 24 hrs post dosing by LC-MS/MS; assay type: ADME, organism-based; settings: in vivo
[4] = Half life in C57BL/6 mouse plasma at 10 mg/kg, po measured […] post dosing by LC-MS/MS; assay type: ADME, organism-based; settings: in vivo
[5] = Cmax in C57BL/6 mouse plasma at 10 mg/kg, po measured upto 24 hrs post dosing by LC-MS/MS; assay type: ADME, organism-based; settings: in vivo
[6] = MRT in C57BL/6 mouse plasma at 10 mg/kg, po measured upto 24 hrs post dosing by LC-MS/MS; assay type: ADME, organism-based; settings: in vivo
Chikungunya virus [7] = assay: Antiviral activity against CHIKV infected in C57BL/6 mouse assessed as mouse survival at 300 mg/kg/day, ip measured after 6 days post infection; assay type: functional, organism-based; settings: time 6.0 day
Chikungunya virus [8] = assay: Antiviral activity against CHIKV infected in C57BL/6 mouse assessed as mouse survival at 100 mg/kg/day, ip measured after 6 days post infection; assay type: functional, organism-based; settings: time 6.0 day
[9] = Toxicity in C57BL/6 mouse model assessed as effect on AST level at 300 mg/kg/day, ip measured after 6 days post infection (reference value: 64 to 100); assay type: organism-based; settings: in vivo, 144 h, time 6 day
[10] = Toxicity in C57BL/6 mouse model assessed as effect on BUN level at 300 mg/kg/day, ip measured after 6 days post infection (reference value: 20 to 30); assay type: organism-based; settings: in vivo, 144 h, time 6 day
[11] = Toxicity in C57BL/6 mouse model assessed as effect on DBILI level at 300 mg/kg/day, ip measured after 6 days post infection (reference value: 0.25 to 0.33); assay type: organism-based; settings: in vivo, 144 h, time 6 day
[12] = target: Polyprotein P1234 (Chikungunya virus (strain S27-African prototype) (CHIKV)) (UniProt Q8JUX6); settings: dose 0.27-600 µM, time 2000-8000 sec
Sequence of Polyprotein P1234 (Chikungunya virus (strain S27-African prototype) (CHIKV)) (Q8JUX6 whole entry): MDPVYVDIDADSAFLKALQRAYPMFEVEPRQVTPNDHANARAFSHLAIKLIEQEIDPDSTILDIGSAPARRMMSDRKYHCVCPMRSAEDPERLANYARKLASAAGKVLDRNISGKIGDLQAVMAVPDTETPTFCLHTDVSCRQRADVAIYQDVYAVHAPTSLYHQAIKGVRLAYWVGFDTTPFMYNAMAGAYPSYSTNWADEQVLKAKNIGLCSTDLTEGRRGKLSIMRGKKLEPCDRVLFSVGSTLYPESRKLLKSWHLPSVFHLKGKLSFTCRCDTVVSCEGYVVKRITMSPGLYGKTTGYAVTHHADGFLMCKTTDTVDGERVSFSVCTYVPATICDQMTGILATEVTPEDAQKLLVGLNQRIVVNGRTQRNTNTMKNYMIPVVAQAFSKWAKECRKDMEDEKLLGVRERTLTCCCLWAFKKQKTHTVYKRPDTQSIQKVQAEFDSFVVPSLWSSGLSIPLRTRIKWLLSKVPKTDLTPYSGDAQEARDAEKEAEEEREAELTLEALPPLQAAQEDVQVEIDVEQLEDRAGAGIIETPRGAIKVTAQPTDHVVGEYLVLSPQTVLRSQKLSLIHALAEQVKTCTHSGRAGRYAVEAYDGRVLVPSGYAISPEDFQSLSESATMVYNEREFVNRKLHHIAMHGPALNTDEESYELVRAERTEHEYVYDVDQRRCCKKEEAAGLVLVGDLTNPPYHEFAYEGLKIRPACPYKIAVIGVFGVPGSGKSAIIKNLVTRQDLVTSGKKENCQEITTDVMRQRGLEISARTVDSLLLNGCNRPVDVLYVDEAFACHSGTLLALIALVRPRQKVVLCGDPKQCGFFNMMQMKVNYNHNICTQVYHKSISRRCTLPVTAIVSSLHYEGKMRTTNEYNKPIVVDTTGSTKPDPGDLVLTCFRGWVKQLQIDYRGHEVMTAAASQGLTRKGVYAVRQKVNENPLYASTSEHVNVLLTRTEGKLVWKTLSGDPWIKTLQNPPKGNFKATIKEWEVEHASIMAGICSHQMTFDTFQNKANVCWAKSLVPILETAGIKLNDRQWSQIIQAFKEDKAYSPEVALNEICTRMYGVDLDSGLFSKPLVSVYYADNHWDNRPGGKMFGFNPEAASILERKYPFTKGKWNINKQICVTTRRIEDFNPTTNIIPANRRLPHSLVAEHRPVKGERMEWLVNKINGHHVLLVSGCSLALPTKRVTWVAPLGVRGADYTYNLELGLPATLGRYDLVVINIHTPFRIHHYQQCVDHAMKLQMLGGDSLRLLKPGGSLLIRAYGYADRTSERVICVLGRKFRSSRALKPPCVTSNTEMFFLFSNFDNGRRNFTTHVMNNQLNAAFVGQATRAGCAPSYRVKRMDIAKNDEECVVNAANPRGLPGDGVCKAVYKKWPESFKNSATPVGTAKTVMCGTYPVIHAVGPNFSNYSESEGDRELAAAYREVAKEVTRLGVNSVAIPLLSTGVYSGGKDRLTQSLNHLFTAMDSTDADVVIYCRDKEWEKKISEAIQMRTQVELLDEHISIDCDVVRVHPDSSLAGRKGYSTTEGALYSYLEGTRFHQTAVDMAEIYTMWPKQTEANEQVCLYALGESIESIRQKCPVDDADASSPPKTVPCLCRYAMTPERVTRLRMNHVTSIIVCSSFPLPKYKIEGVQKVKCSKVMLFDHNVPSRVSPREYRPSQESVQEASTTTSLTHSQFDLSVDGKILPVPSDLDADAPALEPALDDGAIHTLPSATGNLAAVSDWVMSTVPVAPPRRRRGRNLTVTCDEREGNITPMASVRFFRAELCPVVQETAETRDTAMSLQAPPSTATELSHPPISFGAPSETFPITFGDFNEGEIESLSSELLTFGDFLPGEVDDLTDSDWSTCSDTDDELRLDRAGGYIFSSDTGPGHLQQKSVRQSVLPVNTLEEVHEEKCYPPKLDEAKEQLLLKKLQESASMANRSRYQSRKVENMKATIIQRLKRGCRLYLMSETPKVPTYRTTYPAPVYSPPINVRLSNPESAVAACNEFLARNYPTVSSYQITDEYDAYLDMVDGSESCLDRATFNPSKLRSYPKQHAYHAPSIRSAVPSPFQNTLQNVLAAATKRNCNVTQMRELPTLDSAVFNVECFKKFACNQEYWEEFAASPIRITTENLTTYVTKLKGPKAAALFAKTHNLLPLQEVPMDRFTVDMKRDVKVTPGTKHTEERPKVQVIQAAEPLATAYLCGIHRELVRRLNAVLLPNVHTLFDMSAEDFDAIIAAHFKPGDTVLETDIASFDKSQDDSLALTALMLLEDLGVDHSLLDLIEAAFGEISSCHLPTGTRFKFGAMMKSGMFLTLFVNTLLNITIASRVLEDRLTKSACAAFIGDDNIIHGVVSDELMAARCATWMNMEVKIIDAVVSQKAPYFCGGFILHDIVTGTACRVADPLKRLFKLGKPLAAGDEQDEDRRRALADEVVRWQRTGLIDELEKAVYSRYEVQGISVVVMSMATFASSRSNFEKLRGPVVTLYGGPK

[13] = target: Polyprotein P1234 (Chikungunya virus (strain S27-African prototype) (CHIKV)) (UniProt Q8JUX6); settings: dose 0.27-600 µM
[14] = Metabolic stability in human liver microsomes assessed as intrinsic clearance by HPLC-MS/MS analysis; assay type: ADME, Microsome
Cytochrome P450 2C8 = target: T1, Cytochrome P450 2C8 (Homo sapiens, UniProt P10632); assay: Inhibition of CYP2C8 (unknown origin); assay type: ADME
T1 sequence (P10632 whole entry): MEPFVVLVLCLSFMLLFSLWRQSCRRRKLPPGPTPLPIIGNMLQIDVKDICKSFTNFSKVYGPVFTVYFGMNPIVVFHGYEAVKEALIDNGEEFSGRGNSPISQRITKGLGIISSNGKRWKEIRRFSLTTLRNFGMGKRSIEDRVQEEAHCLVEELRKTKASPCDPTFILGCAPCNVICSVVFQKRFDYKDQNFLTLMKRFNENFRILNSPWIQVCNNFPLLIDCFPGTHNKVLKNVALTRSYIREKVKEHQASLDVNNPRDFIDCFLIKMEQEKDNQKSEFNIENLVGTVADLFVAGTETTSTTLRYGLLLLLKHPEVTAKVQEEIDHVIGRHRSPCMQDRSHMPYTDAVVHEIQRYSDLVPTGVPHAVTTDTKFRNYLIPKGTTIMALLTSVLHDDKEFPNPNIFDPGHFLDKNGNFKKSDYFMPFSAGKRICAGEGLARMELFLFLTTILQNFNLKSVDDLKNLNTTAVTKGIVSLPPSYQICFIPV

Cytochrome P450 2C9 = Cytochrome P450 2C9 (Homo sapiens, UniProt P11712); assay: Inhibition of CYP2C9 (unknown origin); assay type: ADME
Sequence of Cytochrome P450 2C9 (P11712 whole entry): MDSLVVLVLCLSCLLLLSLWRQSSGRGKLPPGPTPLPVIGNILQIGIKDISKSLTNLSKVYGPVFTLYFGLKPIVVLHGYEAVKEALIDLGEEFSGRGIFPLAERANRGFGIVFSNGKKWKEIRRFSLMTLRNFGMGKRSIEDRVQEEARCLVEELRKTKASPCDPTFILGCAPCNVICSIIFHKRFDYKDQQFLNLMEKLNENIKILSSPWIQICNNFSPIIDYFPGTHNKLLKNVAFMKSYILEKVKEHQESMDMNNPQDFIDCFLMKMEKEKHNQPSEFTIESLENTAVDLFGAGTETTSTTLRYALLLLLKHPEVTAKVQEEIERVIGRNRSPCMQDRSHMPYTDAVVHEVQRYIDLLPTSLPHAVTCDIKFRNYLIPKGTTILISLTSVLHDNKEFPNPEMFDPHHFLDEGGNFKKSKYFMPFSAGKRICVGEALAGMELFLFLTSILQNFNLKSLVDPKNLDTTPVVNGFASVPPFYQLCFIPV

[15] = target: T2, A-type voltage-gated potassium channel KCND3 (Homo sapiens, UniProt Q9UK17); assay: Antagonist activity at potassium channels hKv4.3/hKChiP2 expressed in HEK293 cells by Electrophysiology; assay type: toxicity, cell-based
T2 sequence (Q9UK17 whole entry): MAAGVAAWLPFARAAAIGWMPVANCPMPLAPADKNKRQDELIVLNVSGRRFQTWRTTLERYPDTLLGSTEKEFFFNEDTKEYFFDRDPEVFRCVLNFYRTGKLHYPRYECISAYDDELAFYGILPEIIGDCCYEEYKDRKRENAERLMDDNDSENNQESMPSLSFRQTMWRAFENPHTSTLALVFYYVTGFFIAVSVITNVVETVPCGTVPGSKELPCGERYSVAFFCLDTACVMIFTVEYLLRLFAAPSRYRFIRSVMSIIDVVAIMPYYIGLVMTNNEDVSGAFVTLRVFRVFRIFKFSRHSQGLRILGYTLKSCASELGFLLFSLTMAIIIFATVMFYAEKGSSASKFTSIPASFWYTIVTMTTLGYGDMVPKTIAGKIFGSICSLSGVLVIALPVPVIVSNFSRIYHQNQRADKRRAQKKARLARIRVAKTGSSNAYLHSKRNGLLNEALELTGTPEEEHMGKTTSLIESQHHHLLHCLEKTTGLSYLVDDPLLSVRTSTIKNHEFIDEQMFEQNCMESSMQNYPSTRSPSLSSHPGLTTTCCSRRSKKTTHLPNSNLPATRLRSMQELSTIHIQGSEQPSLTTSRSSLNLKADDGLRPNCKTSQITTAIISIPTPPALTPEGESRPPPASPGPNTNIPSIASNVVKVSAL

[16] = target: T3, Potassium voltage-gated channel subfamily KQT member 1 (Homo sapiens, UniProt P51787); assay: Antagonist activity at recombinant hKCNQ1/hmink expressed in CHO-K1 cells by Electrophysiology; assay type: toxicity, cell-based
T3 sequence (P51787 whole entry): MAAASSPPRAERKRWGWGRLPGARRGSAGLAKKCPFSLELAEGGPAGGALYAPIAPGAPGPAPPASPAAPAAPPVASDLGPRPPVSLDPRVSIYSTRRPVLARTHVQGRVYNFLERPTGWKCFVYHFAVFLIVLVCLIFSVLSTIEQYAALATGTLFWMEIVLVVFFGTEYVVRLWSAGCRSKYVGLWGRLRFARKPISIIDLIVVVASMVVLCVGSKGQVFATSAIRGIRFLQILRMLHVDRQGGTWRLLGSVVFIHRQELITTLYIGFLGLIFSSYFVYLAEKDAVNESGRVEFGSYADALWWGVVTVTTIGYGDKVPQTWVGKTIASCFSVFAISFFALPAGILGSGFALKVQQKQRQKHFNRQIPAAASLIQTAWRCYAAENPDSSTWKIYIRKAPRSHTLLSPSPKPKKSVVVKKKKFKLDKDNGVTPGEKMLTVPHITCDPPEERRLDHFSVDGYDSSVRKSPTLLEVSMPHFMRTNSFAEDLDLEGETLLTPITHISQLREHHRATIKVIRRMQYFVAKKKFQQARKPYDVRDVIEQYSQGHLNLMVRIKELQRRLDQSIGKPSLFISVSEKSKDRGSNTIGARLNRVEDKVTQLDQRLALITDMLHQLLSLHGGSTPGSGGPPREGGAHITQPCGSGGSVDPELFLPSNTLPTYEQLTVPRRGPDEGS

Kir2.1 = assay: Antagonist activity at hKir2.1 expressed in HEK293 cells by Electrophysiology; assay type: toxicity, cell-based; settings: human, HEK293 cells expressing hKir2.1

Q: With `CC1CCNc2c(C(=O)NC/C=C/S(C)(=O)=O)cccc21` (centres undefined) as the compound, how does the CC50 [1] read?
A: Its CC50 is over 50 µM.

Q: What about the C0 [2] of the same compound?
A: The C0 was 966.5 ng/mL.

Q: And the t1/2 [3]?
A: Its t1/2 is 6 min.

Q: What about the t1/2 [4] of the same compound?
A: The t1/2 was 49.8 min.

Q: What about the Cmax [5] of the same compound?
A: The Cmax was 125 ng/mL.

Q: What about the MRT [6] of the same compound?
A: The MRT was 255 min.

Q: What about the Survival (Chikungunya virus [7]) of the same compound?
A: The Survival was “Active”.

Q: And the Survival (Chikungunya virus [8])?
A: The Survival was “Active”.

Q: And the Activity [9]?
A: The Activity was 64 U/L.

Q: What about the Activity [10] of the same compound?
A: The Activity was 18 mg/dL.

Q: And the Activity [11]?
A: The Activity was 0.14 mg/dL.

Q: What about the TDI [12] of the same compound?
A: The TDI was “Active”.

Q: And the inhibition [13]?
A: The inhibition was “Dose-Dependent Effect”.

Q: And the CLH [14]?
A: Its CLH is under 57.8 µL/min/mg.

Q: What about the IC50 (Cytochrome P450 2C8) of the same compound?
A: Its IC50 is over 100 µM.

Q: What about the IC50 (Cytochrome P450 2C9) of the same compound?
A: Its IC50 is over 100 µM.

Q: And the IC50 [15]?
A: The IC50 was over 100 µM.

Q: What about the IC50 [16] of the same compound?
A: Its IC50 is over 100 µM.

Q: What about the IC50 (Kir2.1) of the same compound?
A: The IC50 was over 100 µM.
